# Source: US7501424B2, “N-phenyl-2-pyrimidine-amine derivatives and process for the preparation thereof” (Il-Yang Pharm. Co., Ltd., priority 2005, dated 2009)
# Read-outs that look alike come from different tables or passages of the source.
# Legend:
# K562 cancer cell = experiment: Growth inhibition of K562 cancer cell (MTT); type: cell-based; settings: for IC50: Homo sapiens, K562, 48 h, K562, MTT, 2 days; for improved activity compared with Imatinib mesylate: K562
# Procedure: (§1) In the present experiment, the inhibitory activity of the compound of formula (1) was determined against the growth of K562 cancer cell. First, the cells were allowed to stand in RPMI (Roswell Park Memorial Institute)-1640 medium containing 10% (v/v) fetal bovine serum in an incubator of 37° C. and 5% by volume of CO2. The cancer cells (1000 cells) were transferred to a 96-well plate, and the test compound was diluted. The plate was allowed to stand under the above mentioned conditions for 2 days. After this treatment, to the cells was added 0.2% MTT (3-[4,5-dimethylthiazol-2-yl]-2,5-diphenyltetrazolium bromide) solution, and the resulting mixture was allowed to stand under the constant temperature-condition for 4 hours. The supernatant was removed to leave the resulting crystal. DMSO was added to dissolve the crystal, and the absorbance of the solution was measured at 540 nm. IC50 value was calculated using a computer system according to the following formula: (OD540(test)−OD540(blank)/OD540(control)−OD540(blank))×100
# CT-26 cancer cell = experiment: Growth inhibition of CT-26 cancer cell (MTT); type: cell-based; settings: for IC50: CT-26, MTT, 2 days; for improved activity compared with Imatinib mesylate: CT-26
# Procedure: as §1
# In the present experiment, the inhibitory activity of the compounds of formula (1) was determined against the growth of CT-26 cancer cell. The test was performed according to the same procedure as Experiment 1.
# A549 = experiment: Growth inhibition of lung cancer cell A549 (MTT); type: cell-based
# Procedure: as §1
# (§2) The test was performed according to the same procedure as Experiment 1.
# as §2
# SNU-1 = experiment: Growth inhibition of gastric cancer cell SNU-1 (MTT); type: cell-based
# Procedure: as §1, §2, §2
# Sarcoma-180 = experiment: Growth inhibition of Sarcoma-180 (MTT); type: cell-based; settings: for IC50: Sarcoma-180, Experiment 4
# Procedure: as §1, §2
# KB = experiment: Growth inhibition of oral epithelial cancer cell KB (MTT); type: cell-based
# Procedure: as §1, §2
# SK-OV-03 = experiment: Growth inhibition of ovarian cancer cell SK-OV-03 (MTT); type: cell-based; settings: for IC50: SK-OV-03, Experiment 4
# Procedure: as §1, §2
# Panc-1 = experiment: Growth inhibition of pancreatic cancer cell Panc-1 (MTT); type: cell-based; settings: Homo sapiens; Panc-1, Experiment 3
# Procedure: as §1, §2
# A-172 = experiment: Growth inhibition of encephalophyma cell A-172 (MTT); type: cell-based; settings: Homo sapiens; A-172, Experiment 3
# Procedure: as §1, §2
# RPMI-6666 = experiment: Growth inhibition of lymphoma cell RPMI-6666 (MTT); type: cell-based; settings: Homo sapiens; RPMI-6666, Experiment 3
# Procedure: as §1, §2
# SNU-C1 = experiment: Growth inhibition of colon cancer cell SNU-C1 (MTT); type: cell-based; settings: Homo sapiens; SNU-C1, Experiment 3
# Procedure: as §1, §2
# [1] = Acute toxicity test in mice (oral administration); type: in vivo; settings: both sexes, ICR, mouse, in vivo, po
# Procedure: (§3) In order to determine the acute toxicity of the compound of the present invention when the compound is orally administered, mice (ICR, 24˜26 g) were fasted for 16 hours. One group consists of 10 males and 10 females. The first group is the control group and 0.5% sodium carboxymethyl cellulose (CMC) was administered per oral to this group. The compounds of Examples 5 and 8 were orally administered in a dosage of 2,000 mg/kg, the maximum dosage in acute toxicity test, to each test group. […] On the last day of the test, 14th day from the start, the mice were subjected to an autopsy in order to examine changes of the internal organs. […] Further, since no mouse died during the test period, it was confirmed that the compounds of Examples 5 and 8 have LD50 of 2,000 mg/kg or more. This means that the compounds of the present invention including those of Examples 5 and 8 are safe in the aspect of acute toxicity.
# mice (ICR) = experiment: Acute toxicity test in mice (oral administration); type: in vivo; settings: mice (ICR), oral 2,000 mg/kg, 14 days
# Procedure: as §3
# [2] = Acute toxicity test in rat (oral administration); type: in vivo; settings: both sexes, SD, rat, in vivo, po
# Procedure: (§4) In this test, the acute toxicity of the compound of the present invention when the compound is […] was determined on rat (SD-Rat, 100˜110 g). One group consists of 5 males and 5 females. The first group is the control group and 0.5% CMC was intravenously administered to this group. The compounds of Examples 5 and 8 were orally administered in a dosage of 1,000, 2,000 mg/kg, respectively, to each test group. […] On the last day of the test, 14th day from the start, the rat were subjected to an autopsy in order to examine changes of the internal organs. […] Further, since no […] died during the test period, it was confirmed that the compounds of Examples 5 and 8 have LD50 of 2,000 mg/kg or more. This means that the compounds of the present invention including those of Examples 5 and 8 are safe in the aspect of acute toxicity.
# rat (SD-Rat) = experiment: Acute toxicity test in rat (oral administration); type: in vivo; settings: SD-Rat, orally 1,000, 2,000 mg/kg, 14 days
# Procedure: as §4
# in vivo = settings: male, Sprague-Dawley, rat, po, 100 mg/kg
# HT-1197 = experiment: Growth inhibition of bladder cancer cell HT-1197 (MTT); type: cell-based; settings: Homo sapiens, HT1197; HT-1197, Experiment 3
# Procedure: as §1, §2
# [3] = Comparative pharmacokinetic test in white rats
# [4] = Mus musculus, CT26, 48 h, read-out: IC50
# [5] = Homo sapiens, A549, Experiment 3, read-out: IC50
# [6] = Homo sapiens, SNU1, SNU-1, Experiment 3, read-out: IC50
# [7] = male, Sprague-Dawley, rat, plasma, po, 100 mg/kg
smiles,measurement,setting,value
"Cc1cn(-c2cc(NC(=O)c3ccc(C)c(Nc4nccc(-c5nccnc5C)n4)c3)cc(C(F)(F)F)c2)cn1 [Example 12, 4-methyl-N-[3-(4-methylimidazol-1-yl)-5-trifluoromethyl-phenyl]-3-[4-(3-methylpyrazin-2-yl)-pyrimidin-2-ylamino]-benzamide]",IC50,K562 cancer cell,210 ng/mL
same,improved activity compared with Imatinib mesylate,K562 cancer cell,much higher activity than Imatinib mesylate
same,IC50,CT-26 cancer cell; [4],2930 ng/mL
"Cc1ccc(C(=O)Nc2cc(-n3ccnc3C)cc(C(F)(F)F)c2)cc1Nc1nccc(-c2cnccn2)n1 [Example 9, 4-methyl-N-[3-(2-methylimidazol-1-yl)-5-trifluoromethyl-phenyl]-3-(4-pyrazin-2-yl-pyrimidin-2-ylamino)-benzamide]",IC50,K562 cancer cell,≤ 10 ng/mL
same,improved activity compared with Imatinib mesylate,K562 cancer cell,50 times
same,improved activity compared with Imatinib mesylate,CT-26 cancer cell,300 times
same,IC50,CT-26 cancer cell; [4],< 10 ng/mL
"N.N.[Cl][Pt][Cl] [Cisplatin, reference compound]",IC50,"A549; A549, Experiment 4",679 ng/mL
same,IC50,"SNU-1; SNU-1, Experiment 4",2064 ng/mL
same,IC50,Sarcoma-180,<0.1 ng/mL
same,IC50,KB; Experiment 4,0.28 ng/mL
same,IC50,SK-OV-03,782 ng/mL
"Cc1cn(-c2cc(NC(=O)c3ccc(Nc4nccc(-c5nccs5)n4)cc3)cc(C(F)(F)F)c2)cn1.Cl.Cl [Example 30, N-[3-(4-methylimidazol-1-yl)-5-trifluoromethyl-phenyl]-4-(4-thiazol-2-yl-pyrimidin-2-ylamino)-benzamide 2 hydrochloride]",improved activity compared with Imatinib mesylate,K562 cancer cell,50 times
same,improved activity compared with Imatinib mesylate,CT-26 cancer cell,300 times
same,IC50,CT-26 cancer cell,9.4 ng/mL
"Cc1ccc(C(=O)Nc2cc(-n3ccnc3C)cc(C(F)(F)F)c2)cc1Nc1nccc(-c2nccs2)n1 [Example 6, 4-methyl-N-[3-(2-methylimidazol-1-yl)-5-trifluoromethyl-phenyl]-3-(4-thiazol-2-yl-pyrimidin-2-ylamino)-benzamide]",improved activity compared with Imatinib mesylate,K562 cancer cell,50 times
same,improved activity compared with Imatinib mesylate,CT-26 cancer cell,300 times
same,IC50,CT-26 cancer cell; [4],< 10 ng/mL
"Cc1cnc(NC(=O)c2ccc(C)c(Nc3nccc(-c4nccs4)n3)c2)s1 [Example 7, 4-methyl-N-(5-methylthiazol-2-yl)-3-(4-thiazol-2-yl-pyrimidin-2-ylamino)-benzamide]",IC50,K562 cancer cell,≤ 10 ng/mL
same,improved activity compared with Imatinib mesylate,K562 cancer cell,50 times
same,improved activity compared with Imatinib mesylate,CT-26 cancer cell,300 times
same,IC50,CT-26 cancer cell; [4],< 10 ng/mL
"Cc1cn(-c2cc(NC(=O)c3ccc(Nc4nccc(-c5cccnc5)n4)cc3)cc(C(F)(F)F)c2)cn1.Cl.Cl [Example 24, N-[3-(4-methylimidazol-1-yl)-5-trifluoromethyl-phenyl]-4-(4-pyridin-3-yl-pyrimidin-2-ylamino)-benzamide 2 hydrochloride]",improved activity compared with Imatinib mesylate,K562 cancer cell,50 times
same,improved activity compared with Imatinib mesylate,CT-26 cancer cell,300 times
same,IC50,CT-26 cancer cell,2.3 ng/mL
"Cc1cn(-c2cc(NC(=O)c3ccc(C)c(Nc4nccc(-c5cnccn5)n4)c3)cc(C(F)(F)F)c2)cn1 [Example 8, 4-methyl-N-[3-(4-methylimidazol-1-yl)-5-trifluoromethyl-phenyl]-3-(4-pyrazin-2-yl-pyrimidin-2-ylamino)-benzamide]",IC50,K562 cancer cell,≤ 10 ng/mL
same,improved activity compared with Imatinib mesylate,K562 cancer cell,50 times
same,improved activity compared with Imatinib mesylate,CT-26 cancer cell,300 times
same,IC50,CT-26 cancer cell; [4],< 10 ng/mL
same,improved activity than Imatinib mesylate,"A549; A549, Experiment 4",> 3.5 times
same,IC50,A549; [5],2230 ng/mL
same,IC50,Panc-1,498 ng/mL
same,IC50,A-172,< 10 ng/mL
same,IC50,RPMI-6666,< 10 ng/mL
same,IC50,SNU-C1,< 10 ng/mL
same,IC50,SNU-1; [6],< 10 ng/mL
same,IC50,"SNU-1; Homo sapiens, SNU1, SNU-1, Experiment 4, read-out: IC50",270 ng/mL
same,improved activity in comparison with cisplatin,"SNU-1; SNU-1, Experiment 4",more than 8 times
same,improved activity than Imatinib mesylate,"SNU-1; SNU-1, Experiment 4",more than 170 times
same,IC50,"Sarcoma-180; Mus musculus, read-out: IC50",< 0.1 ng/mL
same,improved activity than Imatinib mesylate,Sarcoma-180; Sarcoma-180,more than 1×10^4 time
same,improved activity than Imatinib mesylate,KB,more than 1×10^4 time
same,IC50,"KB; Homo sapiens, Experiment 4, read-out: IC50",0.58 ng/mL
same,improved activity than Imatinib mesylate,SK-OV-03; SK-OV-03,> 12 times
same,IC50,SK-OV-03; read-out: IC50,2390 ng/mL
same,LD50 at 14 days,[1],≥ 2000 mg/kg
same,clinical conditions and autopsy,mice (ICR),neither abnormal response nor specific autopsy result was observed
same,LD50 at 14 days,[2],≥ 2000 mg/kg
same,clinical conditions and autopsy,rat (SD-Rat),neither abnormal response nor specific autopsy result was observed
same,AUC,in vivo,61300 ng·h/mL
same,Cmax,in vivo,4100 ng/mL
same,Tmax,in vivo,12 h
"Cc1cn(-c2cc(NC(=O)c3ccc(C)c(Nc4nccc(-c5nccs5)n4)c3)cc(C(F)(F)F)c2)cn1 [Example 5, 4-methyl-N-[3-(4-methylimidazol-1-yl)-5-trifluoromethyl-phenyl]-3-(4-thiazol-2-yl-pyrimidin-2-ylamino)-benzamide]",IC50,K562 cancer cell,≤ 10 ng/mL
same,improved activity compared with Imatinib mesylate,K562 cancer cell,50 times
same,improved activity compared with Imatinib mesylate,CT-26 cancer cell,300 times
same,IC50,CT-26 cancer cell; [4],60 ng/mL
same,IC50,A549; [5],82 ng/mL
same,IC50,Panc-1,7100 ng/mL
same,IC50,A-172,< 10 ng/mL
same,IC50,RPMI-6666,< 10 ng/mL
same,IC50,HT-1197,63 ng/mL
same,IC50,SNU-C1,< 10 ng/mL
same,IC50,SNU-1; [6],< 10 ng/mL
same,LD50 at 14 days,[1],≥ 2000 mg/kg
same,clinical conditions and autopsy,mice (ICR),neither abnormal response nor specific autopsy result was observed
same,LD50 at 14 days,[2],≥ 2000 mg/kg
same,clinical conditions and autopsy,rat (SD-Rat),neither abnormal response nor specific autopsy result was observed
same,AUC,[3]; [7],114000 ng·h/mL
same,Cmax,[3]; [7],8270 ng/mL
same,Tmax,[3]; [7],11.2 h
same,AUC as much as that of Imatinib mesylate,"[3]; white rats, 100 mg/kg per oral",~5 times
same,Cmax as much as that of Imatinib mesylate,"[3]; white rats, 100 mg/kg per oral",about 4 times
"Cc1ccc(C(=O)Nc2cc(-n3ccnc3C)cc(C(F)(F)F)c2)cc1Nc1nccc(-c2nccnc2C)n1 [Example 13, 4-methyl-N-[3-(2-methylimidazol-1-yl)-5-trifluoromethyl-phenyl]-3-[4-(3-methylpyrazin-2-yl)-pyrimidin-2-ylamino]-benzamide]",IC50,K562 cancer cell,304 ng/mL
same,improved activity compared with Imatinib mesylate,K562 cancer cell,much higher activity than Imatinib mesylate
same,IC50,CT-26 cancer cell; [4],3770 ng/mL
